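Five compound concentrations were applied to cells in 96-well plates for 48 hours; endpoints were derived by simple linear interpolation of the resulting dose-response curve. TGI marks complete inhibition of growth.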 Some results are limits rather than exact numbers.

Common to all, as to experiment: inhibition of tumour cell growth, NCI panel, 48 h
Experiment [1] relates to HL-60(TB) leukemia.
In experiment [2] the test system is NCI-H522 lung.
Experiment [3] concerns SF-539 CNS.
Experiment [4] has as its system SN12C renal.
In experiment [5] the test system is HS 578T breast.
Experiment [6] concerns OVCAR-4 ovarian.
The subject of experiment [7] is CCRF-CEM leukemia.
For experiment [8], the system named is PC-3 prostate.
Experiment [9] has as its system NCI/ADR-RES ovarian.
Experiment [10] relates to HCT-15 colon.
The test system of experiment [11] is BT-549 breast.
The test system of experiment [12] is LOX IMVI melanoma.
The test system of experiment [13] is MDA-MB-435.
For experiment [14], the system named is TK-10 renal.
The subject of experiment [15] is MALME-3M melanoma.
Experiment [16] concerns CAKI-1 renal.
Experiment [17] concerns RXF 393 renal.
The subject of experiment [18] is SR leukemia.

`Cc1nc(C(N)=S)sc1C(=O)CC(=O)C(=O)Nc1ccc(Br)cc1`: the TGI in experiment [1], in experiment [2], in experiment [3], in experiment [4], in [5] and in experiment [6] was > 100 µM throughout. Also, the TGI in experiment [7], in experiment [8], in experiment [9], in experiment [10], in experiment [11] and in experiment [12] was > 100 µM each time. Further, the TGI in [13], in experiment [14], in experiment [15], in [16] and in experiment [17] was > 100 µM each time.
For the compound `COC(=O)CN(CC(=O)NCCNC(=O)OC(C)(C)C)C1CCCCC1N(CC(=O)OC)CC(=O)OC` (configuration not stated), the TGI in experiment [1], in experiment [2], in [18], in experiment [3], in experiment [4] and in experiment [5] was > 100 µM throughout. The TGI in experiment [7], in [8], in experiment [9], in experiment [10], in experiment [11] and in experiment [12] was > 100 µM throughout. Further, the TGI in [13], in experiment [14], in experiment [15] and in experiment [16] was > 100 µM throughout.
With `COc1c(Sc2c(SCSc3cnc4ccccc4c3Sc3cnc4ccccc4c3OC)cnc3ccccc23)cnc2ccccc12`, the TGI in experiment [1] was 26.3 µM; in [2], > 100 µM; in experiment [18], 56.7 µM; in [3], > 100 µM; in experiment [4] it was > 100 µM; in experiment [5], > 100 µM. The TGI in [6], in experiment [7], in [8], in [9], in experiment [10] and in experiment [11] was > 100 µM throughout. The TGI in experiment [12], in experiment [13], in experiment [14] and in experiment [16] was > 100 µM throughout.
Regarding `O=C(NCCCCCCCCNC(=O)Nc1cccc2ccccc12)Nc1cccc2ccccc12`, the TGI in [1] is > 100 µM; in experiment [2] it was 87 µM; in experiment [3] it was 24.6 µM; in experiment [4] it was 59.3 µM; in experiment [5] it was > 100 µM; in experiment [6], 4.18 µM. For the same compound, the TGI in [7] was 48.7 µM; in [8] it was > 100 µM; in experiment [9], > 100 µM; in [10], > 100 µM; in [11], > 100 µM; in experiment [12], 59.1 µM. The TGI in experiment [13] was 81.3 µM; in experiment [14], > 100 µM; in experiment [15], > 100 µM; in experiment [16], > 100 µM; in experiment [17], 67.6 µM.
In the case of `O=S(Cc1ccccc1)c1ccccc1Cn1cccc1` (configuration not stated), the TGI in [1] was > 100 µM; in experiment [18], 83.4 µM; in experiment [3], > 100 µM; in [4], > 100 µM; in experiment [5], > 100 µM; in experiment [6], > 100 µM. In addition, the TGI in experiment [7], in experiment [8], in [9], in experiment [10], in [11] and in [12] was > 100 µM in each case. For the same compound, the TGI in [13], in [14], in experiment [15], in experiment [16] and in experiment [17] was > 100 µM each time.
As to `CCOC(=O)C1CCCc2sc(N)c(C#N)c21` (configuration not stated), the TGI in [1], in [18], in experiment [4], in [5], in [8] and in experiment [10] was > 100 µM throughout. Also, the TGI in experiment [11], in [14], in experiment [15] and in [17] was > 100 µM each time.
With `CCN(CC)CCCNc1ccc([N+](=O)[O-])c2nc3ccccc3c(N)c12`, the TGI in experiment [1] is 2.92 µM; in [18], 4.56 µM; in [3], 1.88 µM; in experiment [4], > 10 µM; in experiment [5] it was 1.91 µM; in [6], 1.94 µM. For the same compound, the TGI in [7] was 2.91 µM; in [8] it was 2.25 µM; in [9] it was 2.65 µM; in experiment [10], 2.55 µM; in [11], 3.32 µM; in [12] it was 2.14 µM. The TGI in experiment [13] was 2.9 µM; in experiment [14] it was > 10 µM; in [15], > 10 µM; in experiment [16] it was > 10 µM; in experiment [17], 1.52 µM.
`Cc1cccc2c(N)c3cccc(C(=O)NCC[N+](C)(C)Cc4ccccc4[N+](=O)[O-])c3nc12`: the TGI in [2] was 18.5 µM; in [18], 2.09 µM; in [3], > 32.5 µM; in experiment [4], > 39.9 µM; in experiment [5], > 31.2 µM; in experiment [6], > 34.5 µM. Moreover, the TGI in experiment [8] was 45.2 µM; in [9], > 37.1 µM; in [10], > 100 µM; in experiment [11] it was > 39 µM; in experiment [12] it was > 100 µM; in experiment [13] it was > 46.9 µM. Further, the TGI was > 20 µM in experiment [14], 25.8 µM in experiment [15], > 100 µM in experiment [16] and > 37.7 µM in experiment [17].
Turning to `Cn1c(=O)c2c(nc3n2CCCC(=O)N3CCCCl)n(C)c1=O`, the TGI in experiment [1], in experiment [2], in experiment [18], in [4], in [5] and in experiment [6] was > 100 µM in each case. Moreover, the TGI in [7], in experiment [8], in experiment [9], in experiment [10], in experiment [11] and in [12] was > 100 µM in each case. The TGI in [13], in experiment [14], in experiment [16] and in experiment [17] was > 100 µM each time.
Turning to `Cc1cccc(N=Nc2c(C)nn(C(=O)CC(=O)Nc3ccc(Cl)cc3)c2C)c1`, the TGI is > 100 µM in experiment [1]; > 100 µM in experiment [2]; 41.8 µM in experiment [18]; > 100 µM in [3]; > 100 µM in experiment [4]; > 100 µM in [5]. For the same compound, the TGI was > 100 µM in experiment [6]; 98.6 µM in experiment [7]; > 100 µM in [8]; > 100 µM in [9]; > 100 µM in [10]; > 100 µM in [11]. Also, the TGI in experiment [12], in [13], in experiment [14], in [16] and in experiment [17] was > 100 µM in each case.
In the case of `COc1ccc2c(=O)c3ccoc3[nH]c2c1`, the TGI in [1], in [18], in experiment [3], in [5], in [6] and in experiment [7] was > 100 µM each time. Besides, the TGI in [8], in [9], in experiment [10], in [11], in [12] and in experiment [13] was > 100 µM in each case. Besides, the TGI in experiment [14], in [16] and in experiment [17] was > 100 µM each time.
Take `CC(NNC(=O)c1ccncc1)c1ccccc1` (configuration not stated): the TGI in [1], in experiment [18], in [3], in experiment [4], in [5] and in [6] was > 100 µM throughout. In addition, the TGI in experiment [7], in [8], in experiment [9], in experiment [10], in [11] and in experiment [12] was > 100 µM in each case. Also, the TGI in experiment [13], in [14], in experiment [15], in [16] and in experiment [17] was > 100 µM in each case.
In the case of `O=C1NC(=O)C(CCC(=O)c2cccc3ccccc23)C(=O)N1`, the TGI in [1], in [18], in experiment [3], in experiment [4], in experiment [5] and in experiment [6] was > 100 µM throughout. Further, the TGI in [8], in experiment [9], in [10], in experiment [11], in experiment [12] and in experiment [13] was > 100 µM in each case. The TGI in [16] and in experiment [17] was > 100 µM each time.
On to `Cc1ccc(S(=O)(=O)C2=Cc3ccccc3C2(O)c2ccccc2)cc1` (configuration not stated), for which the TGI in [1] came out at 29.6 µM; in experiment [2], 65 µM; in [18], 92 µM; in experiment [3], 47.5 µM; in experiment [4], 34.3 µM; in experiment [5], 81.9 µM. The TGI was 38.1 µM in [7]; 92.6 µM in experiment [8]; 76.6 µM in [9]; > 100 µM in experiment [10]; 63.1 µM in [11]; 34.2 µM in experiment [12]. Moreover, the TGI in experiment [13] was 69.9 µM; in [14], > 100 µM.
Regarding `CCOC(=O)C(=[N+]=[N-])C(=O)CSC#N`, the TGI in experiment [1] is > 100 µM; in experiment [2], 79.4 µM; in experiment [3], 47.1 µM; in [4] it was > 100 µM; in experiment [5], > 100 µM; in experiment [6], > 100 µM. Moreover, the TGI in experiment [7] is > 100 µM; in [8] it was > 100 µM; in [9], > 100 µM; in [10], > 100 µM; in experiment [11] it was > 100 µM; in [12] it was 61.9 µM. Also, the TGI in experiment [13], in experiment [14], in experiment [15], in [16] and in experiment [17] was > 100 µM each time.
Consider `COc1cc(C2c3cc4c(cc3OC(NNC(N)=S)C2C)OCO4)cc(OC)c1OC` (configuration not stated), for which the TGI in experiment [1] was 0.631 µM; in experiment [2], 1.24 µM; in experiment [18], 1.42 µM; in [3] it was 0.523 µM; in experiment [4], > 100 µM; in experiment [5], > 100 µM. For the same compound, the TGI in experiment [6] was > 100 µM; in experiment [9], > 100 µM; in experiment [10], > 100 µM; in [11] it was 62.3 µM; in [12], > 100 µM; in experiment [14], > 100 µM. For the same compound, the TGI is > 100 µM in [15] and 36.3 µM in experiment [16].
On to `CSc1nc(-c2ccccc2)[nH]c(=O)n1`, for which the TGI in [1], in [2], in experiment [3], in experiment [4], in [5] and in experiment [6] was > 100 µM throughout. The TGI in experiment [7], in experiment [8], in [9], in experiment [10], in [11] and in experiment [13] was > 100 µM in each case. The TGI in experiment [14], in experiment [15], in experiment [16] and in experiment [17] was > 100 µM in each case.
As to `Cn1c(-c2ccccc2)cc(-c2ccc3c(c2)OCO3)c1-c1ccsc1`, the TGI in experiment [1], in [18], in [3], in experiment [4], in experiment [5] and in experiment [6] was > 100 µM in each case. Further, the TGI in experiment [7], in experiment [8], in experiment [9], in experiment [10], in experiment [11] and in experiment [12] was > 100 µM in each case. The TGI in [13], in experiment [14], in experiment [16] and in experiment [17] was > 100 µM each time.
